This note sets out measurements from publication PMC5999544 (Bioorganic & medicinal chemistry letters, 2017).

Data set [1] deals with T1, ASK1 (Homo sapiens, UniProt Q99683).
T1 sequence (Q99683 1-1374): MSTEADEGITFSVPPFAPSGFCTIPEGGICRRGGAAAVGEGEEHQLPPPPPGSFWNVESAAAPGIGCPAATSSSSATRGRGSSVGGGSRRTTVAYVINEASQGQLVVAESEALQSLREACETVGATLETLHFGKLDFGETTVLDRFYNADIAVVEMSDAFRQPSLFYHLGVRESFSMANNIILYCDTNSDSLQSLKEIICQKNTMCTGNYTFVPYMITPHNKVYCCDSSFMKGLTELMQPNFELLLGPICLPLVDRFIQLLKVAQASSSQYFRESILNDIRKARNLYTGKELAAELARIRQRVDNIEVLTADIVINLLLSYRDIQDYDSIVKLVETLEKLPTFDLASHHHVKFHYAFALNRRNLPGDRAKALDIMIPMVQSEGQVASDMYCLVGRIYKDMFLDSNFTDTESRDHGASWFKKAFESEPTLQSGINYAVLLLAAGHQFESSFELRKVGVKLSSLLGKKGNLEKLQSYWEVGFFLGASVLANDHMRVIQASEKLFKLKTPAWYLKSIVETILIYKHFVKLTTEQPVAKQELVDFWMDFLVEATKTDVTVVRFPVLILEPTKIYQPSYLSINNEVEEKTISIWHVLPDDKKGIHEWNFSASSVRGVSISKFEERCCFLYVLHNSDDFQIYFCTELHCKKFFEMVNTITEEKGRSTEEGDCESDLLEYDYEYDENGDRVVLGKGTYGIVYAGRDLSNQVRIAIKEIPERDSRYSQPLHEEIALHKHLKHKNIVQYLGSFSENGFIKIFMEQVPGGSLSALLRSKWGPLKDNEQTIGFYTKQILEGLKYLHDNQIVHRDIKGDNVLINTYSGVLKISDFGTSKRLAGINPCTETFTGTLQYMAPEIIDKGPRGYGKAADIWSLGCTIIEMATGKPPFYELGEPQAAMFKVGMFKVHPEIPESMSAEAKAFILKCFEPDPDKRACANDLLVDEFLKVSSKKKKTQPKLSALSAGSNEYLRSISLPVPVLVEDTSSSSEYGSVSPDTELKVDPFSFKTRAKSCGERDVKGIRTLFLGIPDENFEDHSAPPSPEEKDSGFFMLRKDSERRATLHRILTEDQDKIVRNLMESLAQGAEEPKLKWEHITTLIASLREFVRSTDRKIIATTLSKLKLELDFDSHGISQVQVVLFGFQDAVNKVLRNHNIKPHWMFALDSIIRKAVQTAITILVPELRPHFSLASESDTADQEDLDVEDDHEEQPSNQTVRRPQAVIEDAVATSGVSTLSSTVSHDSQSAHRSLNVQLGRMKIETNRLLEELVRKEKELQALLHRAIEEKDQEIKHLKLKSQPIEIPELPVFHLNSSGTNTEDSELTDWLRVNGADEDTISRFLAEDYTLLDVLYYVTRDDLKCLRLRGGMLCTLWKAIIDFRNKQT
Put plainly: ASK1 Alphascreen biochemical assay. Background: In Alpha technology, singlet oxygen from a donor bead excites a nearby acceptor bead.

The next data set has as its target CYP3A4 (Homo sapiens, UniProt P08684). Nature of the data set: Cytochrome P450 inhibition assay 3A4. The data set is classed as in vitro ADME.
The target of data set [2] is T1, ASK1. Nature of the data set: Enzyme kinetic study, Lineweaver-Burk plot at six ATP concentrations. The data set is classed as biochemical. To be noted: with or without compound.
The target of the next data set is CYP2C9 (Homo sapiens, UniProt P11712). Nature of the data set: Cytochrome P450 inhibition assay 2C9. The data set is classed as in vitro ADME.
The next data set has as its system INS-1e cell line. Nature of the data set: TNFα-induced phosphorylation of endogenous MKK6 at Ser207, immunoblot. The note with it: rat INS-1e cells. The data set is classed as cell-based.

The structures appear in SMILES notation. “Also recorded” adds a separate entry of the source. Bounds are passed on as bounds.

Sequence of CYP3A4 (P08684 whole entry): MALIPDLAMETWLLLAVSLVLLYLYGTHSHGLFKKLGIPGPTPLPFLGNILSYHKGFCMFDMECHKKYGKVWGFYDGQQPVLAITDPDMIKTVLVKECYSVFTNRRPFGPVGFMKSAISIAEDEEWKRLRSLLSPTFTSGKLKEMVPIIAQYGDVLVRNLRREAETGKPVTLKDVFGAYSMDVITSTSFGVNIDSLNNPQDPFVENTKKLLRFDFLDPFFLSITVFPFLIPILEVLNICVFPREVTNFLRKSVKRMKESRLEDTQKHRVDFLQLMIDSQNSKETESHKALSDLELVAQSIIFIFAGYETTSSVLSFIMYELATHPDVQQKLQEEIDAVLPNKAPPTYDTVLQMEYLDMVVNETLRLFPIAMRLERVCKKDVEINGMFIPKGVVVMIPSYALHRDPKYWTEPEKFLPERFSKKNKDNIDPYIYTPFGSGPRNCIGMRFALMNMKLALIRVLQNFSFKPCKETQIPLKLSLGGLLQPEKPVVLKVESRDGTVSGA
Sequence of CYP2C9 (P11712 whole entry): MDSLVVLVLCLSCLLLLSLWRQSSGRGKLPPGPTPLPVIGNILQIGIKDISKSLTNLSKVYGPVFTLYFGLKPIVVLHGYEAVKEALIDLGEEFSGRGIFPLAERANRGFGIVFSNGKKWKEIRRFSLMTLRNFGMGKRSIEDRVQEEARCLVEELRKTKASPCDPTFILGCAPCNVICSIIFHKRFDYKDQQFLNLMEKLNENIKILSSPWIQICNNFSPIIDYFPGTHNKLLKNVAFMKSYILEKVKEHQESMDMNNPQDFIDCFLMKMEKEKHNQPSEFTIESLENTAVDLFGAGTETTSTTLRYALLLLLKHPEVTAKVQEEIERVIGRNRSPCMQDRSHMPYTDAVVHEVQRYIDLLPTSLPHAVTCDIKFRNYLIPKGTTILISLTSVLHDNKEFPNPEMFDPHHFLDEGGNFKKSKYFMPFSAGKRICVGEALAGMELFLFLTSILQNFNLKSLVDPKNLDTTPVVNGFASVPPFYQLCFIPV

`CN(C)c1cccc(Nc2nccc(NCCOc3ccccc3)n2)c1` [Compound 3]: on ASK1 [1] (3 versus 1), the “fold less active as an ASK1 inhibitor compared to 1” value was “approximately 250 fold”.

By inhibition is commonly meant the drop in the measured response relative to a control, in per cent. A low value points to a response near the control. Take `CC(=O)Nc1cccc(Nc2ncc3ccccc3n2)c1` [Compound 12]: the “ASK1 inhibitory activity (in words)” value on ASK1 [1] was “submicromolar inhibitory activities against ASK1”. For the same compound, the “fold improvement in potency in comparison to quinazoline 9” value on ASK1 [1] (12 versus 9) is listed as greater than 10 fold. Further, the inhibition at 10 µM on CYP3A4 and on CYP2C9 was less than 20% in each case. In addition, the “mode of ASK1 inhibition” value at ASK1 [2] was “ATP competitive”. Besides, in the data set with INS-1e cell line, the “TNFα-induced MKK6 ser207 phosphorylation” value was “protects against TNFα-induced MKK6^ser207 phosphorylation; also recorded: reduction of p-MKK6^ser207”.

For the compound `CC(=O)Nc1cccc(Nc2ncc3cc(-c4cn[nH]c4)ccc3n2)c1` [Compound 23], the “ASK1 inhibitory activity (in words)” value at ASK1 [1] is “submicromolar inhibitory activities against ASK1”. The inhibition at 10 µM at CYP3A4 and at CYP2C9 was greater than 85% throughout.

As for `CC(C)(C)C(=O)N(c1ccccc1)c1cccc(Nc2ncc3cc(-c4cn[nH]c4)ccc3n2)c1` [Compound 28], the “ASK1 inhibitory activity (in words)” value on ASK1 [1] is given as “did not show improvement in ASK1 activity”.

As to `Cn1cc(-c2ccc3nc(Nc4cccc(N(C(=O)C(C)(C)C)c5ccccc5)c4)ncc3c2)cn1` [Compound 29], the “ASK1 inhibitory activity (in words)” value at ASK1 [1] is “did not show improvement in ASK1 activity”.
